In this assay the test system is B6C3F1 mice, B16 melanoma ip, median survival T/C. Nature of the assay: NCI In Vivo Anticancer Drug Screen. Data for tumor model B16 Melanoma (intraperitoneal) in B6C3F1 mice. To be noted: endpoint: median survival time, higher = longer survival. Summed up:
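Mice bearing transplanted tumor were dosed with compound or vehicle, and survival was recorded. Activity is expressed as the treated-group measurement (T) divided by the vehicle control measurement (C).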

The mark [1] stands for this setting: dose: 12.5 mg/kg/injection, schedule: Q01DX009 (ip), vehicle: saline with Tween-80.
Setting [2] is: dose: 25.0 mg/kg/injection, schedule: Q01DX009 (ip), vehicle: saline with Tween-80.
The mark [3] stands for this setting: dose: 100.0 mg/kg/injection, schedule: Q01DX009 (ip), vehicle: Klucel (hydroxypropylcellulose) (HPC).
[4] abbreviates: dose: 200.0 mg/kg/injection, schedule: Q01DX009 (ip), vehicle: Klucel (hydroxypropylcellulose) (HPC).
The mark [5] stands for this setting: dose: 400.0 mg/kg/injection, schedule: Q01DX009 (ip), vehicle: Klucel (hydroxypropylcellulose) (HPC).
Where [6] appears, read: dose: 25.0 mg/kg/injection, schedule: Q01DX009 (ip), vehicle: saline.
Where [7] appears, read: dose: 50.0 mg/kg/injection, schedule: Q01DX009 (ip), vehicle: saline.
Setting [8] is: dose: 12.5 mg/kg/injection, schedule: Q01DX009 (ip), vehicle: Klucel (hydroxypropylcellulose) (HPC).
The mark [9] stands for this setting: dose: 25.0 mg/kg/injection, schedule: Q01DX009 (ip), vehicle: Klucel (hydroxypropylcellulose) (HPC).
Where [10] appears, read: dose: 50.0 mg/kg/injection, schedule: Q01DX009 (ip), vehicle: Klucel (hydroxypropylcellulose) (HPC).
The mark [11] stands for this setting: dose: 50.0 mg/kg/injection, schedule: Q01DX009 (ip), vehicle: saline with Tween-80.
Where [12] appears, read: dose: 100.0 mg/kg/injection, schedule: Q01DX009 (ip), vehicle: saline with Tween-80.
[13] abbreviates: dose: 200.0 mg/kg/injection, schedule: Q01DX009 (ip), vehicle: saline with Tween-80.
The mark [14] stands for this setting: dose: 400.0 mg/kg/injection, schedule: Q01DX009 (ip), vehicle: saline with Tween-80.
Setting [15] is: dose: 100.0 mg/kg/injection, schedule: Q01DX009 (ip), vehicle: saline.
The mark [16] stands for this setting: dose: 200.0 mg/kg/injection, schedule: Q01DX009 (ip), vehicle: saline.
Where [17] appears, read: dose: 400.0 mg/kg/injection, schedule: Q01DX009 (ip), vehicle: saline.
[18] abbreviates: dose: 3.12 mg/kg/injection, schedule: Q01DX009 (ip), vehicle: Klucel (hydroxypropylcellulose) (HPC).
Where [19] appears, read: dose: 6.25 mg/kg/injection, schedule: Q01DX009 (ip), vehicle: Klucel (hydroxypropylcellulose) (HPC).

The structures appear in SMILES notation. Several values for one entry are separate records, joined by “and”; a condition that tells them apart may be missing. Identical values can stand only once. Inconclusive results and toxic doses are left out. Where a SMILES comes first, the peptide text is derived from it. The star is where a group is joined. Cbz = O=C(OCc1ccccc1)*

As to `O=[n+]1c2ccccc2n([O-])c2ccccc21.[Cl][Ni][Cl]`, the T/C is, setting by setting: (dose: 1.56 mg/kg/injection, schedule: Q01DX009 (ip), vehicle: saline with Tween-80) 103 % of control; (dose: 3.12 mg/kg/injection, schedule: Q01DX009 (ip), vehicle: saline with Tween-80) 95 % of control; (dose: 6.25 mg/kg/injection, schedule: Q01DX009 (ip), vehicle: saline with Tween-80) 97 % of control; under setting [1], 113 % of control; under setting [2], 91 % of control.

For `O=C(O)CNC(=O)OCC1c2ccccc2-c2ccccc21`, the T/C under setting [3] is 93 % of control, the T/C under setting [4] was 87 % of control and the T/C under setting [5] is 86 % of control.

For `O=NN(CCF)C(=O)N[C@H]1CCCC[C@H]1O`, the T/C runs as follows: (dose: 7.5 mg/kg/injection, schedule: Q01DX001 (ip), vehicle: saline) 109 % of control; (dose: 30.0 mg/kg/injection, schedule: Q01DX001 (ip), vehicle: saline) 177 % of control; (dose: 60.0 mg/kg/injection, schedule: Q01DX001 (ip), vehicle: saline) 209 % of control.

For `C=C1CCC[C@@]2(C)CC[C@@H](/C(C)=C\C=C\C(C)(C)O)C[C@H]12`, the T/C (dose: 12.5 mg/kg/injection, schedule: Q01DX009 (ip), vehicle: Klucel + Tween-80) is 113 % of control; the T/C (dose: 25.0 mg/kg/injection, schedule: Q01DX009 (ip), vehicle: Klucel + Tween-80) is 106 % of control; the T/C (dose: 50.0 mg/kg/injection, schedule: Q01DX009 (ip), vehicle: Klucel + Tween-80) was 107 % of control; the T/C (dose: 100.0 mg/kg/injection, schedule: Q01DX009 (ip), vehicle: Klucel + Tween-80) was 112 % of control; the T/C (dose: 200.0 mg/kg/injection, schedule: Q01DX009 (ip), vehicle: Klucel + Tween-80) is 90 % of control.

In the case of `NC(N)=NCCCC(NC(=O)c1ccccc1)C(=O)O` (centres undefined), the T/C runs as follows: (dose: 40.0 mg/kg/injection, schedule: Q01DX009 (ip), vehicle: saline with Tween-80) 95 % of control and 102 % of control (2×); (dose: 80.0 mg/kg/injection, schedule: Q01DX009 (ip), vehicle: saline with Tween-80) 122 % of control and 95 % of control and 96 % of control; (dose: 160.0 mg/kg/injection, schedule: Q01DX009 (ip), vehicle: saline with Tween-80) 108 % of control and 102 % of control; (dose: 320.0 mg/kg/injection, schedule: Q01DX009 (ip), vehicle: saline with Tween-80) 108 % of control and 105 % of control and 106 % of control; (dose: 640.0 mg/kg/injection, schedule: Q01DX009 (ip), vehicle: saline with Tween-80) 113 % of control.

As for `CC(C)C(NC(=O)C(Cc1cnc[nH]1)NC(=O)OCc1ccccc1)C(=O)O` (stereo not drawn) (Cbz-His-Val-OH; configuration not given here), the T/C runs as follows: under setting [3], 94 % of control; under setting [4], 102 % of control; under setting [5], 102 % of control.

Consider `COc1cc(C2c3cc4c(cc3C(O)C(CO)C2CO)OCO4)cc(OC)c1OC` (centres undefined), for which the T/C under setting [1] was 111 % of control and 113 % of control; the T/C under setting [2] was 113 % of control.

Consider `CC1=NN(c2ccccc2)C(=O)C1N=Nc1ccccc1S(=O)(=O)O` (centres undefined), for which the T/C is 104 % of control (dose: 12.5 mg/kg/injection, schedule: Q01DX009 (ip), vehicle: saline); 94 % of control under setting [6]; 96 % of control under setting [7].

In the case of `[N-]=[N+]=CC(=O)CCC(=O)C=[N+]=[N-]`, the T/C (dose: 1.56 mg/kg/injection, schedule: Q01DX009 (ip), vehicle: DMSO) was 124 % of control.

As for `C[C@]12CCC(=O)C(O)=C1CC[C@@H]1[C@@H]2CC[C@]2(C)C(=O)CC[C@@H]12`, the T/C reads like this: under setting [8], 88 % of control and 95 % of control; under setting [9], 97 % of control; under setting [10], 97 % of control and 102 % of control; under setting [3], 92 % of control and 98 % of control; under setting [4], 94 % of control and 95 % of control; under setting [5], 87 % of control and 93 % of control.

Take `COc1cc2c[n+](C)c3c(c2cc1OC)Cc1cc2c(cc1-3)OCO2`: the T/C reads like this: under setting [1], 120 % of control; (dose: 12.5 mg/kg/injection, schedule: Q01DX009 (ip), vehicle: suspension in saline) 111 % of control; (dose: 25.0 mg/kg/injection, schedule: Q01DX009 (ip), vehicle: suspension in saline) 111 % of control; (dose: 50.0 mg/kg/injection, schedule: Q01DX009 (ip), vehicle: suspension in saline) 110 % of control.

With `CN1C(=O)NC(c2ccc(Cl)cc2)(c2ccc(Cl)cc2)C1=O`, the T/C is 105 % of control under setting [1]; 100 % of control under setting [2]; 99 % of control under setting [11]; 99 % of control under setting [12]; 103 % of control under setting [13]; 99 % of control under setting [14].

As to `O=C(O)C1CCCN1C(=O)OCc1ccccc1` (centres undefined), the T/C was 97 % of control under setting [10] and 89 % of control under setting [4].

For `CN=C(N)N/N=C(\C)c1ccc2sc3ccc(/C(C)=N/NC(N)=NC)cc3c2c1`, the T/C is 108 % of control under setting [2]; 113 % of control under setting [11]; 120 % of control under setting [12]; 119 % of control under setting [13]; 95 % of control under setting [14].

For the molecule `CC1Oc2cc3c(-c4c(O)cc(O)c5c(O)c6c(cc45)OC(C)C(C)C6=O)c(O)cc(O)c3c(O)c2C(=O)C1C` (centres undefined), the T/C (dose: 0.31 mg/kg/injection, schedule: Q01DX009 (ip), vehicle: suspension in saline) was 117 % of control; the T/C (dose: 0.62 mg/kg/injection, schedule: Q01DX009 (ip), vehicle: suspension in saline) is 101 % of control; the T/C (dose: 1.25 mg/kg/injection, schedule: Q01DX009 (ip), vehicle: suspension in saline) is 109 % of control; the T/C (dose: 2.5 mg/kg/injection, schedule: Q01DX009 (ip), vehicle: suspension in saline) was 116 % of control.

Take `CC(C)=CCN1C(=O)c2ccccc2C1=O`: the T/C is 104 % of control under setting [15], 102 % of control under setting [16] and 94 % of control under setting [17].

With `CN1CCc2c(c3ccccc3c3ccccc23)C1`, the T/C is 116 % of control and 94 % of control under setting [18]; 87 % of control and 99 % of control under setting [19]; 88 % of control and 102 % of control and 106 % of control under setting [8]; 90 % of control and 102 % of control under setting [9]; 116 % of control and 97 % of control and 102 % of control under setting [10]; 118 % of control and 92 % of control under setting [3].

Take `CCCCC(C)(CCN)CCCC`: the T/C is, setting by setting: under setting [6], 105 % of control; under setting [7], 122 % of control; under setting [15], 101 % of control.

Regarding `Nc1ccc2cc(S(=O)(=O)O)cc(O)c2c1N=Nc1ccc(F)cc1`, the T/C is 95 % of control under setting [2], 98 % of control under setting [11] and 90 % of control under setting [12].

Turning to `CSc1nc(N)nc2c1ncn2C1OC(CO)C(O)C1O` (centres undefined), the T/C runs as follows: under setting [6], 103 % of control; under setting [7], 123 % of control; under setting [15], 112 % of control; under setting [16], 97 % of control; under setting [17], 101 % of control.

For the molecule `CC(C)CC(=O)NC(C(=O)NC(C(=O)NC(CC(C)C)C(O)CC(=O)NC(C)C(=O)NC(CC(C)C)C(O)CC(=O)O)C(C)C)C(C)C` (centres undefined), the T/C is 102 % of control under setting [19], 93 % of control under setting [8], 96 % of control under setting [9] and 88 % of control under setting [10].

With `C=Cc1cnc([N+](=O)[O-])n1C`, the T/C runs as follows: under setting [8], 99 % of control and 106 % of control; under setting [9], 103 % of control and 107 % of control; under setting [10], 100 % of control and 105 % of control; under setting [3], 109 % of control and 106 % of control; under setting [4], 110 % of control and 100 % of control.

On to `O=NN(CCF)C(=O)NC1CCCCC1`, for which the T/C reads like this: under setting [18], 116 % of control; under setting [19], 166 % of control; (dose: 12.0 mg/kg/injection, schedule: Q01DX001 (ip), vehicle: Klucel (hydroxypropylcellulose) (HPC)) 121 % of control; under setting [8], 333 % of control; (dose: 25.0 mg/kg/injection, schedule: Q01DX001 (ip), vehicle: Klucel (hydroxypropylcellulose) (HPC)) 162 % of control; (dose: 100.0 mg/kg/injection, schedule: Q01DX001 (ip), vehicle: Klucel (hydroxypropylcellulose) (HPC)) 216 % of control.

Consider `O=C1C=CC(=Nc2ccc3c(c2)C(Br)c2ccccc2-3)O1` (centres undefined), for which the T/C is 92 % of control (dose: 5.0 mg/kg/injection, schedule: Q01DX009 (ip), vehicle: saline) and 87 % of control (dose: 10.0 mg/kg/injection, schedule: Q01DX009 (ip), vehicle: saline).

These data come from PubChem BioAssay AID200 (DTP/NCI, 2004).
